Data published in US10131652B2, “Pyrimidinyloxy benzene derivatives as herbicides” (E. I. DU PONT DE NEMOURS AND COMPANY, priority 2014, dated 2018).
Where two headings read alike, the source gives them in different places.

Legend:
Experiment in all cases: Test D pre-/postemergence plant response
Assay type in all cases: in vivo
[1] = system: oilseed rape (Brassica napus); conditions: Brassica napus; for plant injury at 16 g/ha: 16 g ai/ha; for plant injury at 31 g/ha: 31 g ai/ha; for plant injury at 62 g/ha: 62 g ai/ha; for plant injury at 125 g/ha: 125 g ai/ha
Method in brief: (§1)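 Seeds sown in loam–sand blend got preemergence sprays of test chemicals in a non-phytotoxic solvent with surfactant; postemergence sprays went on plants at 1- to 4-leaf stage (2 to 18 cm) in peat/vermiculite medium. After 13 to 15 days in greenhouse, visual injury versus controls scored 0 (no effect) to 100 (complete control).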

[2] = system: large (Lg) crabgrass (Digitaria sanguinalis); conditions: Digitaria sanguinalis; for pest or weed control at 16 g/ha: 16 g ai/ha; for pest or weed control at 31 g/ha: 31 g ai/ha; for pest or weed control at 62 g/ha: 62 g ai/ha; for pest or weed control at 125 g/ha: 125 g ai/ha
Method in brief: as §1

[3] = system: yellow nutsedge (Cyperus esculentus); conditions: Cyperus, pre-emergence, Preemergence
Method in brief: as §1

[4] = system: winter wheat (Triticum aestivum); conditions: Triticum aestivum; for plant injury at 16 g/ha: 16 g ai/ha; for plant injury at 31 g/ha: 31 g ai/ha; for plant injury at 62 g/ha: 62 g ai/ha; for plant injury at 125 g/ha: 125 g ai/ha
Method in brief: as §1

[5] = system: Italian ryegrass (Lolium multiflorum); conditions: Lolium multiflorum; for pest or weed control at 16 g/ha: 16 g ai/ha; for pest or weed control at 31 g/ha: 31 g ai/ha; for pest or weed control at 62 g/ha: 62 g ai/ha; for pest or weed control at 125 g/ha: 125 g ai/ha
Method in brief: as §1

[6] = system: galium (catchweed bedstraw, Galium aparine); conditions: Galium; for pest or weed control at 16 g/ha: 16 g ai/ha; for pest or weed control at 31 g/ha: 31 g ai/ha; for pest or weed control at 62 g/ha: 62 g ai/ha; for pest or weed control at 125 g/ha: 125 g ai/ha
Method in brief: as §1

[7] = system: blackgrass (Alopecurus myosuroides); conditions: Alopecurus myosuroides; for pest or weed control at 16 g/ha: 16 g ai/ha; for pest or weed control at 31 g/ha: 31 g ai/ha; for pest or weed control at 62 g/ha: 62 g ai/ha; for pest or weed control at 125 g/ha: 125 g ai/ha
Method in brief: as §1

[8] = system: waterhemp (common waterhemp, Amaranthus rudis); conditions: Amaranthus tuberculatus; for pest or weed control at 16 g/ha: 16 g ai/ha; for pest or weed control at 31 g/ha: 31 g ai/ha; for pest or weed control at 62 g/ha: 62 g ai/ha; for pest or weed control at 125 g/ha: 125 g ai/ha
Method in brief: as §1

[9] = system: corn (Zea mays); conditions: Zea mays; for Corn plant response rating (crop injury, 0 = no effect, 100 = complete kill) at 62 g/ha: 62 g ai/ha
Method in brief: as §1

[10] = system: pigweed (Amaranthus retroflexus); conditions: Amaranthus retroflexus, post-emergence, Postemergence, scale 0 to 100 (0 no effect, 100 complete control), read-out: Pigweed plant response rating
Method in brief: as §1

[11] = post-emergence, Postemergence, scale 0 to 100 (0 no effect, 100 complete control), read-out: Oilseed Rape plant response rating
[12] = post-emergence, Postemergence, scale 0 to 100, 0 no effect, 100 complete control, read-out: Plant response rating, Oilseed Rape
[13] = pre-emergence, Preemergence, scale 0 to 100 (0 no effect, 100 complete control), read-out: Plant response rating, Oilseed Rape
[14] = post-emergence, Postemergence, scale 0 to 100 (0 no effect, 100 complete control), read-out: Crabgrass, Large plant response rating
[15] = post-emergence, Postemergence, scale 0 to 100, 0 no effect, 100 complete control, read-out: Plant response rating, Crabgrass, Large
[16] = pre-emergence, Preemergence, scale 0 to 100 (0 no effect, 100 complete control), read-out: Plant response rating, Crabgrass, Large
[17] = post-emergence, Postemergence, scale 0 to 100 (0 no effect, 100 complete control), read-out: Wheat plant response rating
[18] = post-emergence, Postemergence, scale 0 to 100, 0 no effect, 100 complete control, read-out: Plant response rating, Wheat
[19] = pre-emergence, Preemergence, scale 0 to 100 (0 no effect, 100 complete control), read-out: Plant response rating, Wheat
[20] = post-emergence, Postemergence, scale 0 to 100 (0 no effect, 100 complete control), read-out: Ryegrass, Italian plant response rating
[21] = post-emergence, Postemergence, scale 0 to 100, 0 no effect, 100 complete control, read-out: Plant response rating, Ryegrass, Italian
[22] = pre-emergence, Preemergence, scale 0 to 100 (0 no effect, 100 complete control), read-out: Plant response rating, Ryegrass, Italian
[23] = post-emergence, Postemergence, scale 0 to 100 (0 no effect, 100 complete control), read-out: Galium plant response rating
[24] = post-emergence, Postemergence, scale 0 to 100, 0 no effect, 100 complete control, read-out: Plant response rating, Galium
[25] = pre-emergence, Preemergence, scale 0 to 100 (0 no effect, 100 complete control), read-out: Plant response rating, Galium
[26] = post-emergence, Postemergence, scale 0 to 100 (0 no effect, 100 complete control), read-out: Blackgrass plant response rating
[27] = post-emergence, Postemergence, scale 0 to 100, 0 no effect, 100 complete control, read-out: Plant response rating, Blackgrass
[28] = pre-emergence, Preemergence, scale 0 to 100 (0 no effect, 100 complete control), read-out: Plant response rating, Blackgrass
[29] = post-emergence, Postemergence, scale 0 to 100 (0 no effect, 100 complete control), read-out: Waterhemp plant response rating
[30] = post-emergence, Postemergence, scale 0 to 100, 0 no effect, 100 complete control, read-out: Plant response rating, Waterhemp
[31] = pre-emergence, Preemergence, scale 0 to 100 (0 no effect, 100 complete control), read-out: Plant response rating, Waterhemp

FC(F)c1cc(-c2ccccc2Oc2ncc(Cl)cn2)on1 [Compound 53, 5-chloro-2-[2-[3-(difluoromethyl)-5-isoxazolyl]phenoxy]pyrimidine] was tested, and the plant injury at 16 g/ha [1, 11] was 70%, the plant injury at 31 g/ha [1, 11] was 80% and the plant injury at 62 g/ha [1, 12] was 95%. The plant injury at 125 g/ha [1, 12] was 85%, the plant injury at 125 g/ha ([1]; pre-emergence, Preemergence, read-out: Plant response rating (scale 0 to 100), Oilseed Rape) was 100% and the plant injury at 16 g/ha [1, 13] was 80%. It also gave a plant injury at 31 g/ha [1, 13] of 100%, a plant injury at 62 g/ha [1, 13] of 100% and a pest or weed control at 16 g/ha [2, 14] of 10%. The pest or weed control at 31 g/ha [2, 14] was 20%, the pest or weed control at 62 g/ha [2, 15] was 15% and the pest or weed control at 125 g/ha [2, 15] was 30%. It also gave a pest or weed control at 125 g/ha ([2]; pre-emergence, Preemergence, read-out: Plant response rating (scale 0 to 100), Crabgrass, Large) of 100%, a pest or weed control at 16 g/ha [2, 16] of 65% and a pest or weed control at 31 g/ha [2, 16] of 95%. It also gave a pest or weed control at 62 g/ha [2, 16] of 98%, a pest or weed control at 125 g/ha ([3]; 125 g ai/ha, read-out: Plant response rating (scale 0 to 100), Nutsedge, Yellow) of 5% and a pest or weed control at 16 g/ha ([3]; 16 g ai/ha, scale 0 to 100 (0 no effect, 100 complete control), read-out: Plant response rating, Nutsedge, Yellow) of 20%. The pest or weed control at 31 g/ha ([3]; 31 g ai/ha, scale 0 to 100 (0 no effect, 100 complete control), read-out: Plant response rating, Nutsedge, Yellow) was 0%, the pest or weed control at 62 g/ha ([3]; 62 g ai/ha, scale 0 to 100 (0 no effect, 100 complete control), read-out: Plant response rating, Nutsedge, Yellow) was 0% and the plant injury at 16 g/ha [4, 17] was 0%. For the same molecule, the plant injury at 31 g/ha [4, 17] was 0%, the plant injury at 62 g/ha [4, 18] was 0% and the plant injury at 125 g/ha [4, 18] was 0%. The plant injury at 125 g/ha ([4]; pre-emergence, Preemergence, read-out: Plant response rating (scale 0 to 100), Wheat) was 5%, the plant injury at 16 g/ha [4, 19] was 0% and the plant injury at 31 g/ha [4, 19] was 0%. It also gave a plant injury at 62 g/ha [4, 19] of 0%, a pest or weed control at 16 g/ha [5, 20] of 0% and a pest or weed control at 31 g/ha [5, 20] of 5%. The pest or weed control at 62 g/ha [5, 21] was 5%, the pest or weed control at 125 g/ha [5, 21] was 5% and the pest or weed control at 125 g/ha ([5]; pre-emergence, Preemergence, read-out: Plant response rating (scale 0 to 100), Ryegrass, Italian) was 60%. The pest or weed control at 16 g/ha [5, 22] was 0%, the pest or weed control at 31 g/ha [5, 22] was 10% and the pest or weed control at 62 g/ha [5, 22] was 15%. For the same molecule, the pest or weed control at 16 g/ha [6, 23] was 60%, the pest or weed control at 31 g/ha [6, 23] was 85% and the pest or weed control at 62 g/ha [6, 24] was 95%. For the same molecule, the pest or weed control at 125 g/ha [6, 24] was 90%, the pest or weed control at 125 g/ha ([6]; pre-emergence, Preemergence, read-out: Plant response rating (scale 0 to 100), Galium) was 98% and the pest or weed control at 16 g/ha [6, 25] was 85%. It also gave a pest or weed control at 31 g/ha [6, 25] of 95%, a pest or weed control at 62 g/ha [6, 25] of 100% and a pest or weed control at 16 g/ha [7, 26] of 5%. For the same molecule, the pest or weed control at 31 g/ha [7, 26] was 40%, the pest or weed control at 62 g/ha [7, 27] was 20% and the pest or weed control at 125 g/ha [7, 27] was 30%. The pest or weed control at 125 g/ha ([7]; pre-emergence, Preemergence, read-out: Plant response rating (scale 0 to 100), Blackgrass) was 95%, the pest or weed control at 16 g/ha [7, 28] was 5% and the pest or weed control at 31 g/ha [7, 28] was 25%. For the same molecule, the pest or weed control at 62 g/ha [7, 28] was 90%, the pest or weed control at 16 g/ha [8, 29] was 80% and the pest or weed control at 31 g/ha [8, 29] was 90%. The pest or weed control at 62 g/ha [8, 30] was 90%, the pest or weed control at 125 g/ha [8, 30] was 100% and the pest or weed control at 125 g/ha ([8]; pre-emergence, Preemergence, read-out: Plant response rating (scale 0 to 100), Waterhemp) was 100%. It also gave a pest or weed control at 16 g/ha [8, 31] of 100%, a pest or weed control at 31 g/ha [8, 31] of 100% and a pest or weed control at 62 g/ha [8, 31] of 100%. It also gave a plant injury at 16 g/ha ([9]; post-emergence, Postemergence, 16 g ai/ha, scale 0 to 100 (0 no effect, 100 complete control), read-out: Corn plant response rating) of 0%, a plant injury at 31 g/ha ([9]; post-emergence, Postemergence, 31 g ai/ha, scale 0 to 100 (0 no effect, 100 complete control), read-out: Corn plant response rating) of 0% and a Corn plant response rating (crop injury, 0 = no effect, 100 = complete kill) at 62 g/ha ([9]; post-emergence, Postemergence, scale 0 to 100, 0 no effect, 100 complete control) of 0%. For the same molecule, the Corn plant response rating (crop injury, 0 = no effect, 100 = complete kill) at 125 g/ha ([9]; post-emergence, Postemergence, 125 g ai/ha, scale 0 to 100, 0 no effect, 100 complete control) was 0%, the plant injury at 125 g/ha ([9]; pre-emergence, Preemergence, 125 g ai/ha, read-out: Plant response rating (scale 0 to 100), Corn) was 5% and the Corn plant response rating (crop injury, 0 = no effect, 100 = complete kill) at 16 g/ha ([9]; pre-emergence, Preemergence, 16 g ai/ha, scale 0 to 100 (0 no effect, 100 complete control)) was 5%. The Corn plant response rating (crop injury, 0 = no effect, 100 = complete kill) at 31 g/ha ([9]; pre-emergence, Preemergence, 31 g ai/ha, scale 0 to 100 (0 no effect, 100 complete control)) was 10%, the Corn plant response rating (crop injury, 0 = no effect, 100 = complete kill) at 62 g/ha ([9]; pre-emergence, Preemergence, scale 0 to 100 (0 no effect, 100 complete control)) was 100% and the pest or weed control at 16 g/ha ([10]; 16 g ai/ha) was 85%. For the same molecule, the pest or weed control at 31 g/ha ([10]; 31 g ai/ha) was 90%.
